This test has as its system E. coli, ATCC #51813. Briefly: Antibacterial efficacy test, ATP Relative Light Unit (RLU) counts. In kind it is cell-based. The method, then: The NIST nanoparticles are formed by a chemical reduction process that utilizes citrate as reducing and capping agent.
Relative Light Unit (RLU) counts were recorded at 12 hours and 24 hours post treatment. RLU measurements were carried out using a Hygiena SystemSURE Plus V.2 SN067503 RLU meter with Hygenia AquaSnap TOTAL ATP Water Test Cat #U143 Lot #153019. Culturing media was Hardy Diagnostics Buffered Peptone Water Lot #118272. Samples were prepared with the nanoparticle treatments and then diluted with the media to provide the tested concentrations. The test organism (Microbiologics, E. coli, KwikStik, ATCC #51813, Ref #0791 K, Lot #791-1-6) was incubated in fresh Buffered Peptone Water growth media for 24 hours prior to exposure to the nanoparticle treatments.

`O=[N+]([O-])[O-].[Ag+]` [AgNO3 Silver Nitrate, silver nitrate]: the “RLU Counts at 12 Hours Post Exposure” value runs as follows: (0.25 ppm (mg/L)) 80 RLU; (0.5 ppm (mg/L)) 75 RLU; (1.0 ppm (mg/L)) 84 RLU. In addition, the “RLU Counts at 24 Hours Post Exposure” value is listed as 25 RLU (0.25 ppm (mg/L)), 46 RLU (0.5 ppm (mg/L)) and 30 RLU (1.0 ppm (mg/L)).

These data come from patent US12610952B2, “Antimicrobial compositions and methods” (EVOQ NANO, INC., priority 2014, dated 2026).
